Legend:
[1] = tested on: 8-OHdG (8-hydroxy-2'-deoxyguanosine); assay: 8-OHdG oxidative stress marker staining of colon tissue; format: in vivo, mouse; settings: group pretreated with SeMet and treated with AOM-DSS compared to group treated with AOM-DSS
Experimental: (§1) Each of the colons extracted from the mice in Example 1 was fixed in 10% formalin, and then embedded in paraffin to make FFPE (paraffin-embedded) samples. Each of the FFPE samples was sectioned to a thickness of 10 μm and mounted on micro-slides (MUTO-GLASS, Japan), followed by drying at 37° C. overnight. Then, the paraffin sections were deparaffinized with xylene and concentration gradient alcohol. The deparaffinized tissue sections were stained with hematoxylin and eosin (H & E) (Sigma Aldrich) and an antibody (MOG-100P, JaICA) of 8-OHdG (8-hydroxy-2′-deoxyguanosine) known as an oxidative stress marker.

ANXA2 (annexin A2) = assay: Immunohistochemical analysis of colon tissue: ANXA2; format: in vivo, mouse
Experimental: (§2) Immunohistochemical analysis of the PHB, PNP, ANXA2 and CRP markers determined in Example 4 for the colon tissue samples obtained from groups 1 to 4 in Example 1 was performed.
(§3) Specifically, the colon paraffin sections obtained from the mice of groups 1 to 4 in […] were deparaffinized and rehydrated. In addition, endogenous peroxidases were quenched with methanol containing 0.3% H2O2 for 20 minutes. The sections were incubated with the primary antibodies anti-prohibitin (H-80) (sc-28259, Santa Cruz Biotechnology), anti-PNP (sc-135163, Santa Cruz Biotechnology), anti-CRP (H-90) (sc-30047, Santa Cruz Biotechnology), anti-annexin II (H-50) (sc-9061, Santa Cruz Biotechnology) and anti-8-OhdG (MOG-100P, JaICA) at 4° C. overnight. Then, the sections were incubated with biotin-conjugated secondary antibodies corresponding to the primary antibodies for 30 minutes, after which the sections were washed with PBS and incubated with streptavidin horseradish peroxidase (Vector Labs) for 30 minutes. The sections were washed with PBS, and then incubated with a DAB (3,3′-diaminobenzidine) substrate solution containing 1.8×10^−3% (v/v) of H2O2 for 10 minutes. […] The degree of staining of each of the markers in tumor cells developed in the stained tissues of each group was measured according to the method described in “Charafe-Jauffret, E., et al. (2004). […]

[2] = tested on: PNP (purine nucleoside phosphorylase); assay: Immunohistochemical analysis of colon tissue: PNP; format: in vivo, mouse; settings: immunohistochemistry
Experimental: as §2, §3

PHB (prohibitin) = assay: Immunohistochemical analysis of colon tissue: PHB; format: in vivo, mouse; settings: immunohistochemistry
Experimental: as §2, §3

colon tissues = assay: 2-DE and nano-HPLC-ESI-QIT-MS proteomics of colon tissue; format: in vivo, mouse; settings: group 4 vs group 3
Experimental: In order to investigate the molecular target of SeMet (selenomethionine) having chemopreventive activity against colorectal cancer, the colon tissue samples obtained from the mice of groups 1 to 4 in Example 1 were analyzed using a 2-DE (2-dimensional electrophoresis) method.
Specifically, the colon tissues (excluding polyps) obtained from group 1 treated neither with SeMet (selenomethionine) nor AOM-DSS, group 2 treated with 15 ppm SeMet (selenomethionine) (Pharma Se Inc, USA), group 3 treated with AOM-DSS and group 4 treated with AOM-DSS after pretreatment with 15 ppm SeMet (selenomethionine) were washed with homogenization buffer A (50 mM Tris-HCl (pH7.5), 2 mM EDTA, 150 mM NaCl and 0.5 mM DTT) and then cut to small pieces. The pieces were homogenized in buffer (50 mM Tris-HCl (pH 7.5), 0.25 M sucrose, 5 mM magnesium acetate, 0.2 mM EDTA and 0.5 mM DTT) supplemented with Halt™ protease inhibitor cocktail (Thermo Fisher Scientific, Rockford, Ill.) on ice using a grinding kit (GE Healthcare Life Science, Uppsala, Sweden). Then, the solution was centrifuged at 13,000 rpm at 4° C. for 30 minutes, and 10% trichloroacetic acid was added to the supernatant to precipitate proteins. The collected precipitate was dissolved in rehydration buffer (8 M urea, 2% CHAPS, 50 mM DTT and 0.2% IPG buffer), and then, in order to perform 2D gel electrophoresis, the concentration of the proteins was adjusted with a BCA protein analysis kit (Thermo Fisher Scientific), and 200 μg of each protein was separated with Immobiline Dry Strip (pH 4-7, 18 cm, GE healthcare). 2D separation was performed on 12% acrylamide gel in Ettan Dalt II system (10 mA/gel; 1 hr, 40 mA/gel; >6 hr) (GE Healthcare Life Science, Uppsala, Sweden) for 7 hours. Then, the gel having proteins separated thereon stained using silver staining technology, after which the image of the gel was analyzed using Progenesis SameSpots software (version. 4.1, Nonlinear Dynamics, Newcastle, UK), and spots on the gel were detected. In analysis of the gel image, the gel was automatically aligned by measurement of alignment vectors using an analysis wizard, and master images of the experimental groups were made using Progenesis SameSpots software. The master images were used to normalize and quantify the spot volume and to analyze the proteins showing a difference in expression between the groups.
In order to investigate the molecular target of SeMet (selenomethionine) having chemopreventive activity against colorectal cancer, the colon tissue samples obtained from groups 1 to 4 in Example 1 were analyzed by mass spectrometry.
The cut spots were treated with trypsin, and protein identification was performed using a nano LC/MS system composed of a Surveyor HPLC system (Thermo Scientific, Waltham, Mass.) equipped with a nano-ESI source and an electrospray ionization (ESI)-quadrupole ion trap (QIT) mass spectrometer (LCQ Deca XP-Plus, Thermo Finnigan, San Jose, Calif., USA). In order to desalt and concentrate 10 μl of trypsin peptides, the peptide was loaded into a C18 trap column (i.d. 300 μm, length 5 mm, particle size 5 μm; LC Packings, Amsterdam, Netherlands) through an auto sampler at a flow rate of 20 μl/min. Then, the trapped peptides were allowed to flow backward and separated in a C18 reversed-phase capillary column (75 μm silica tube, length 150 mm, particle size 5 μm). The pump flow rate was split 1:100 for a column flow rate of […]. Mobile phase A was a solution of a mixture of 0.5% acetic acid and 0.02% formic acid in water, and mobile phase B was a solution of a mixture of 0.5% acetic acid and 0.02% formic acid in 80% acetonitrile. The samples were injected into the column and eluted by mobile phase B at a concentration gradient of 5-5 20 50 60 80 100% for 0-15-18-50-55-60-62 minutes, respectively. MS and MS/MS spectra were obtained using a capillary tube (temperature: 220° C., ESI voltage: 2.5 kV, and collision energy: 35%). […]

[3] = tested on: AOM-induced premalignant lesions; settings: AOM-DSS mouse models (Baines 2000); cited from earlier work
CRP (C-reactive protein) = assay: Immunohistochemical analysis of colon tissue: CRP; format: in vivo, mouse
Experimental: as §2, §3

[4] = tested on: AOM-DSS-induced colorectal cancer; assay: Histopathological observation (H & E) of colon tissue of AOM-DSS mice; format: in vivo, mouse; settings: group 4 (SeMet pretreatment + AOM-DSS) compared to group 3 (AOM-DSS alone)
Experimental: as §1

AOM-DSS mouse model = format: in vivo; settings: group 4 (15 ppm SeMet pretreatment + AOM-DSS) compared to group 3 (AOM-DSS)
Experimental: In order to examine the chemopreventive activity of SeMet (selenomethionine) against the development of colorectal cancer, the frequency and size of colon polyps in an inflammation-related colorectal cancer-induced mouse model according to the intake of SeMet (selenomethionine) were examined.
Specifically, an experiment was performed using forty eight 5-week-old ICR male mice (Lab Animal, Korea) divided into the following groups: group 1: treated with neither SeMet (selenomethionine) nor AOM-DSS; group 2: treated with 15 ppm SeMet (selenomethionine) (Pharma Se Inc, USA); group 3: treated with AOM-DSS; and group 4: pretreated with 15 ppm SeMet (selenomethionine) and then treated with AOM-DSS (FIGS. 1A and 1B).
AOM (azoxymethane) (Sigma-Aldrich Co, USA) that is a colorectal cancer-inducing substance was injected intraperitoneally (i.p.) into the mice at a dose of 10 mg/kg, and 1.5% (w/v) of dextran sodium sulfate (DSS) (MP Biomedicals, LLC, USA) that is a colitis-inducing substance was allowed to drink for one week after injection of AOM.
The mice of the four groups were euthanized with CO2 gas when reached 22 weeks of age, and the colons were extracted and observed.

CRC = settings: patients who take selenium (Marshall 2008); cited from earlier work
[5] = pretreatment with SeMet + AOM-DSS vs colorectal cancer development, immunohistochemistry
[6] = administration of SeMet alone (group 2)
[7] = group 4 (SeMet pretreatment + AOM-DSS) vs AOM-DSS-induced colorectal cancer tissue

C[Se]CC[C@H](N)C(=O)O [SeMet, selenomethionine]
8-OHdG in colon tissue [1]: decreased
expression of ANXA2 (ANXA2 (annexin A2); SeMet administered alone): did not change
expression of ANXA2 (ANXA2 (annexin A2); [5]): decreased
expression of PNP [2, 6]: increased
expression of PNP [2, 7]: increased again
expression of PHB (PHB (prohibitin); [6]): increased
expression of PHB (PHB (prohibitin); [7]): increased again
Expression in SeMet/AOM-DSS (colon tissues; Alcohol dehydrogenase (Akr1a4), spot 50): Decreased
Expression in SeMet/AOM-DSS (colon tissues; Aldose reductase (Akr1b3), spot 49): Decreased
Expression in SeMet/AOM-DSS (colon tissues; Annexin 1 (Anxa1), spot 51): Decreased
Expression in SeMet/AOM-DSS (colon tissues; Annexin 2 (Anxa2), spot 48): Decreased
Expression in SeMet/AOM-DSS (colon tissues; Annexin 3 (Anxa3), spot 40): Increased
Expression in SeMet/AOM-DSS (colon tissues; Annexin 7 (Anxa7), spot 57): Increased
Expression in SeMet/AOM-DSS (colon tissues; Beta-actin (Actb), spot 39): Increased
Expression in SeMet/AOM-DSS (colon tissues; C-reactive protein (Crp1), spot 14): Decreased
Expression in SeMet/AOM-DSS (colon tissues; Cofilin 1 (Cfl1), spot 4): Decreased
Expression in SeMet/AOM-DSS (colon tissues; Cofilin 2 (Cfl2), spot 4): Decreased
Expression in SeMet/AOM-DSS (colon tissues; Destrin (Dstn), spot 5): Decreased
Expression in SeMet/AOM-DSS (colon tissues; Eukaryotic translation initiation 5A (Eif5a), spot 10): Increased
Expression in SeMet/AOM-DSS (colon tissues; Glutathione transferase omega 1 (Gsto1), spot 25): Decreased
Expression in SeMet/AOM-DSS (colon tissues; Hypoxanthine-guanine phosphoribosyltransferase 1 (Hprt1), spot 29): Decreased
Expression in SeMet/AOM-DSS (colon tissues; Inorganic pyrophosphatase 1 (Ppa1), spot 38): Increased
Expression in SeMet/AOM-DSS (colon tissues; Isoform 1 of Isocitrate dehydrogenase [NAD] subunit alpha (Idh3a), spot 41): Increased
Expression in SeMet/AOM-DSS (colon tissues; Isoform 1 of Tropomyosin alpha-1 chain (Tpm1), spot 43): Decreased
Expression in SeMet/AOM-DSS (colon tissues; L-lactate dehydrogenase A chain (Ldha), spot 47): Decreased
Expression in SeMet/AOM-DSS (colon tissues; Nucleoside diphosphate kinase B (Nme2), spot 8): Decreased
Expression in SeMet/AOM-DSS (colon tissues; Peroxiredoxin 1 (Prdx1), spot 16, 21): Decreased
Expression in SeMet/AOM-DSS (colon tissues; Peroxiredoxin 4 (Prdx4), spot 16, 21): Decreased
Expression in SeMet/AOM-DSS (colon tissues; Phosphoglycerate mutase 2 (Pgam2), spot 24): Decreased
Expression in SeMet/AOM-DSS (colon tissues; Prohibitin (Phb), spot 34): Increased
Expression in SeMet/AOM-DSS (colon tissues; Proteasome activator complex subunit 1 (Psme1), spot 32): Increased
Expression in SeMet/AOM-DSS (colon tissues; Proteasome subunit beta type 1 precursor (Psmb1), spot 18): Decreased
Expression in SeMet/AOM-DSS (colon tissues; Purine nucleoside phosphorylase (Pnp), spot 33): Increased
Expression in SeMet/AOM-DSS (colon tissues; S-formylglutathione hydrolase (Esd), spot 46): Decreased
Expression in SeMet/AOM-DSS (colon tissues; Transaldolase (Taldo1), spot 52): Decreased
Expression in SeMet/AOM-DSS (colon tissues; Triosephosphate isomerase 1 (Tpi1), spot 19, 23): Decreased
Expression in SeMet/AOM-DSS (colon tissues; Ubiquinol cytochrome c reductase 1 (Uqcrfs1), spot 20): Decreased
development of AOM-induced premalignant lesions [3]: reduces
expression of CRP (CRP (C-reactive protein); SeMet administered alone): did not change
expression of CRP (CRP (C-reactive protein); [5]): decreased
dysplasia and neoplastic lesions [4]: decreases
polyps in the colon (AOM-DSS mouse model): significantly decreased

[Se] [selenium]
reduction of the risk of CRC (CRC): about 50%

— patent US20140377773A1, “Detection Marker for Anticancer Effects by Selenomethionine as an Inhibitor of Environmental Toxicity” (Dongguk University Industry-Academic Cooperation Foundation, priority 2013, published 2014)
